Measurements from the CheMixHub viscosity set.

Assay: xn = mol fraction of the nth substance listed

CC=CC(=O)O + CCOC(C)=O
viscosity [mPa·s], 101 kPa
Settings	x1 = 0.0495	x1 = 0.0995	x1 = 0.1509	x1 = 0.1971	x1 = 0.2463	x1 = 0.2605
298.15 K	0.4663	0.5094	0.5447	0.5907	0.6329	0.6467
303.15 K	0.4417	0.4788	0.5181	0.5583	0.5921	0.6093
313.15 K	0.4005	0.4309	0.4587	0.494	0.5254	0.5496
323.15 K	0.361	0.3895	0.413	0.4469	0.4704	0.4917

COCCOCCOC + CCOC(C)=O
viscosity [mPa·s], 101.33 kPa
Settings	x1 = 0.1016	x1 = 0.2005	x1 = 0.3016	x1 = 0.4007	x1 = 0.4999	x1 = 0.6005	x1 = 0.6994	x1 = 0.8013	x1 = 0.8999
298.15 K	0.477	0.527	0.579	0.633	0.69	0.748	0.815	0.867	0.92
303.15 K	0.451	0.497	0.546	0.594	0.645	0.698	0.75	0.807	0.854
308.15 K	0.428	0.469	0.513	0.558	0.604	0.653	0.706	0.748	0.794
313.15 K	0.406	0.445	0.485	0.526	0.569	0.612	0.659	0.7	0.74
318.15 K	0.385	0.421	0.459	0.496	0.535	0.575	0.616	0.653	0.689

ClC(Cl)C(Cl)Cl + CCOC(C)=O
303.15 K, 101.3 kPa
Settings	viscosity [mPa·s]
x2 = 0.15	1.358
x2 = 0.2009	1.306
x2 = 0.3141	1.18
x2 = 0.3963	1.08
x2 = 0.4968	0.9507
x2 = 0.5996	0.8225
x2 = 0.7128	0.6857
x2 = 0.8056	0.5773
x2 = 0.9246	0.4625

CCCCCCN + CCOCCO
308.15 K, 101 kPa
Settings	viscosity [mPa·s]
x2 = 0.1321	0.7283
x2 = 0.255	0.8766
x2 = 0.3698	1.026
x2 = 0.4772	1.172
x2 = 0.5779	1.305
x2 = 0.6726	1.426
x2 = 0.7616	1.469
x2 = 0.8456	1.457
x2 = 0.9249	1.445

Oc1ccccc1 + CN(C)c1ccccc1
viscosity [mPa·s], 101 kPa
Settings	293.15 K	302.95 K	313.35 K
x1 = 0.0998	–	1.351	1.159
x1 = 0.114	1.684	–	–
x1 = 0.2041	–	1.629	1.354
x1 = 0.2122	2.045	–	–
x1 = 0.2884	2.415	–	–
x1 = 0.2958	–	1.936	1.57
x1 = 0.385	–	2.315	1.84
x1 = 0.3889	3.085	–	–
x1 = 0.4659	3.77	–	–
x1 = 0.477	–	2.83	2.185
x1 = 0.5458	4.7	–	–
x1 = 0.5549	–	3.33	2.51
x1 = 0.6187	5.64	–	–
x1 = 0.6224	–	3.93	2.855
x1 = 0.6851	6.75	–	–
x1 = 0.6955	–	4.705	3.34
x1 = 0.75	8.01	–	–
x1 = 0.7591	–	5.325	3.715
x1 = 0.8215	9.4	–	–
x1 = 0.8274	–	6.025	4.15
x1 = 0.8827	10.3	–	–
x1 = 0.8884	–	6.48	4.4
x1 = 0.9428	10.87	–	–
x1 = 0.9463	–	6.86	4.59

CC[P+](c1ccccc1)(c1ccccc1)c1ccccc1.[Br-] + CN(CCO)CCO
viscosity [mPa·s], 100 kPa
Settings	293.15 K	303.15 K	313.15 K	323.15 K
x1 = 0.05673	152.7	81.77	47.16	29.08
x1 = 0.08776	192.3	100.3	56.67	34.34
x1 = 0.1208	238	121	66.81	39.76

ClC(Cl)C(Cl)Cl + CNc1ccccc1
303 K, 101.33 kPa
Settings	viscosity [mPa·s]
x2 = 0.1012	1.439
x2 = 0.1991	1.49
x2 = 0.3016	1.541
x2 = 0.4007	1.59
x2 = 0.5004	1.633
x2 = 0.6007	1.66
x2 = 0.7017	1.686
x2 = 0.7992	1.707
x2 = 0.9013	1.73

CCCO + CO
Settings	viscosity [mPa·s]
293.15 K, 101 kPa, x2 = 0.25	1.379
293.15 K, 101 kPa, x2 = 0.5	1.015
293.15 K, 101 kPa, x2 = 0.75	0.825
293.15 K, 101.3 kPa, x2 = 0.174	1.78
293.15 K, 101.3 kPa, x2 = 0.339	1.45
293.15 K, 101.3 kPa, x2 = 0.51	1.16
293.15 K, 101.3 kPa, x2 = 0.741	0.857
293.15 K, 101.3 kPa, x2 = 0.873	0.711
298.15 K, 101 kPa, x2 = 0.25	1.243
298.15 K, 101 kPa, x2 = 0.5	0.931
298.15 K, 101 kPa, x2 = 0.75	0.775
298.15 K, 101.33 kPa, x2 = 0.1414	1.672
298.15 K, 101.33 kPa, x2 = 0.2419	1.483
298.15 K, 101.33 kPa, x2 = 0.3419	1.315
298.15 K, 101.33 kPa, x2 = 0.4462	1.159
298.15 K, 101.33 kPa, x2 = 0.5137	1.067
298.15 K, 101.33 kPa, x2 = 0.5731	0.992
298.15 K, 101.33 kPa, x2 = 0.7216	0.825
298.15 K, 101.33 kPa, x2 = 0.8038	0.744
298.15 K, 101.33 kPa, x2 = 0.8805	0.662
303.15 K, 101 kPa, x2 = 0.25	1.128
303.15 K, 101 kPa, x2 = 0.5	0.856
303.15 K, 101 kPa, x2 = 0.75	0.717
308.15 K, 101 kPa, x2 = 0.25	1.028
308.15 K, 101 kPa, x2 = 0.5	0.788
308.15 K, 101 kPa, x2 = 0.75	0.663
313.15 K, 101 kPa, x2 = 0.25	0.938
313.15 K, 101 kPa, x2 = 0.5	0.728
313.15 K, 101 kPa, x2 = 0.75	0.615
313.15 K, 101.3 kPa, x2 = 0.174	1.17
313.15 K, 101.3 kPa, x2 = 0.339	0.986
313.15 K, 101.3 kPa, x2 = 0.51	0.822
313.15 K, 101.3 kPa, x2 = 0.741	0.624
313.15 K, 101.3 kPa, x2 = 0.873	0.53
318.15 K, 101 kPa, x2 = 0.25	0.859
318.15 K, 101 kPa, x2 = 0.5	0.673
318.15 K, 101 kPa, x2 = 0.75	0.571
323.15 K, 101 kPa, x2 = 0.25	0.787
323.15 K, 101 kPa, x2 = 0.5	0.623
323.15 K, 101 kPa, x2 = 0.75	0.531

COCCOCCOC + CO
viscosity [mPa·s], 100 kPa
Settings	293.15 K	298.15 K	303.15 K
x2 = 0.056	1.064	0.984	0.903
x2 = 0.1076	1.05	0.97	0.89
x2 = 0.202	1.015	0.94	0.863
x2 = 0.2929	0.99	0.916	0.84
x2 = 0.3965	0.951	0.882	0.808
x2 = 0.4979	0.909	0.843	0.775
x2 = 0.5993	0.863	0.8	0.735
x2 = 0.6891	0.814	0.756	0.693
x2 = 0.7967	0.747	0.697	0.641
x2 = 0.8412	0.718	0.669	0.615
x2 = 0.8996	0.674	0.629	0.578
x2 = 0.948	0.637	0.595	0.546

COCCOCCOC + COC(=O)OC
viscosity [mPa·s], 101.33 kPa
Settings	298.15 K	308.15 K	318.15 K
x1 = 0.0428	0.608	0.536	0.485
x1 = 0.0832	0.626	0.55	0.496
x1 = 0.149	0.66	0.576	0.516
x1 = 0.2102	0.693	0.6	0.536
x1 = 0.2752	0.723	0.626	0.556
x1 = 0.3253	0.752	0.647	0.571
x1 = 0.3937	0.784	0.674	0.592
x1 = 0.4775	0.818	0.701	0.615
x1 = 0.5765	0.855	0.733	0.641
x1 = 0.6623	0.884	0.758	0.661
x1 = 0.7219	0.903	0.774	0.675
x1 = 0.8014	0.93	0.792	0.691
x1 = 0.8649	0.949	0.807	0.702
x1 = 0.8944	0.958	0.813	0.708
x1 = 0.9047	0.961	0.816	0.71
x1 = 0.9232	0.966	0.821	0.713
x1 = 0.9316	0.969	0.823	0.714
x1 = 0.9372	0.97	0.823	0.715
x1 = 0.9528	0.975	0.826	0.718

COCCOCCOC + COC(=O)c1ccccc1
viscosity [mPa·s], 101.33 kPa
Settings	x1 = 0.1017	x1 = 0.1985	x1 = 0.3026	x1 = 0.3989	x1 = 0.4978	x1 = 0.599	x1 = 0.6958	x1 = 0.7991	x1 = 0.8979
298.15 K	1.707	1.622	1.532	1.448	1.367	1.286	1.209	1.129	1.055
303.15 K	1.542	1.467	1.389	1.317	1.245	1.173	1.105	1.036	0.971
308.15 K	1.401	1.334	1.264	1.2	1.137	1.073	1.014	0.953	0.894
313.15 K	1.279	1.218	1.155	1.1	1.044	0.987	0.934	0.879	0.828
318.15 K	1.169	1.116	1.061	1.012	0.962	0.911	0.862	0.814	0.768
